Laboratory results published in the supplement of paper PMC10307832.

What was measured:
Assay in all cases: relative viability (nuclei count vs DMSO), 5 days (fraction); higher = more cells survive
[1] = compound: CN(c1ncccc1CNc1nc(Nc2ccc3c(c2)CC(=O)N3)ncc1C(F)(F)F)S(C)(=O)=O + CCNC(=O)c1noc(-c2cc(C(C)C)c(O)cc2O)c1-c1ccc(CN2CCOCC2)cc1 [Luminespib] (partner 0.01 µM)
Method in brief: (§1)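 One day after seeding in 1536-well plates, lung cancer cell lines were dosed by pin tool. Dosing was either single-drug or a fixed anchor-drug dose plus five library-drug doses (not always all listed) in √10 steps. After 5 days, nuclei were stained in one fix-and-stain step and counted on 4× images, and relative viability is the nuclei count of treated wells over that of vehicle wells, given as the median of duplicate plates.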

[2] = compound: CN(c1ncccc1CNc1nc(Nc2ccc3c(c2)CC(=O)N3)ncc1C(F)(F)F)S(C)(=O)=O + CC1(C)CCC(c2ccc(Cl)cc2)=C(CN2CCN(c3ccc(C(=O)NS(=O)(=O)c4ccc(N[C@H](CCN5CCOCC5)CSc5ccccc5)c(S(=O)(=O)C(F)(F)F)c4)cc3)CC2)C1 [Navitoclax] (partner 0.5 µM)
Method in brief: as §1

[3] = compound: CN(c1ncccc1CNc1nc(Nc2ccc3c(c2)CC(=O)N3)ncc1C(F)(F)F)S(C)(=O)=O + C[C@]1(O)C[C@@H](c2nc(-c3ccc4ccc(-c5ccccc5)nc4c3)c3c(N)nccn32)C1 [Linsitinib] (partner 1 µM)
Method in brief: as §1

[4] = compound: CN(c1ncccc1CNc1nc(Nc2ccc3c(c2)CC(=O)N3)ncc1C(F)(F)F)S(C)(=O)=O + COc1cc2c(Oc3ccc(NC(=O)C4(C(=O)Nc5ccc(F)cc5)CC4)cc3F)ccnc2cc1OCCCN1CCOCC1 [Foretinib] (partner 0.25 µM)
Method in brief: as §1

Cell Line | relative viability ([1]; first compound 0.01 µM) | relative viability ([1]; first compound 0.03162 µM) | relative viability ([1]; first compound 0.1 µM) | relative viability ([1]; first compound 0.3162 µM) | relative viability ([1]; first compound 1 µM) | relative viability ([2]; first compound 0.01 µM) | relative viability ([2]; first compound 0.03162 µM) | relative viability ([2]; first compound 0.1 µM) | relative viability ([2]; first compound 0.3162 µM) | relative viability ([2]; first compound 1 µM) | relative viability ([3]; first compound 0.01 µM) | relative viability ([3]; first compound 0.03162 µM) | relative viability ([3]; first compound 0.1 µM) | relative viability ([3]; first compound 0.3162 µM) | relative viability ([3]; first compound 1 µM) | relative viability ([4]; first compound 0.01 µM) | relative viability ([4]; first compound 0.03162 µM) | relative viability ([4]; first compound 0.1 µM) | relative viability ([4]; first compound 0.3162 µM) | relative viability ([4]; first compound 1 µM)
LOU-NH91 | 0.322 | 0.366 | 0.313 | 0.351 | 0.355 | 0.695 | 0.751 | 0.772 | 0.762 | 0.793 | 0.988 | 1.02 | 1.02 | 1.08 | 1.11 | 0.945 | 1.02 | 0.88 | 1.04 | 0.999
LU99A | 0.316 | 0.264 | 0.323 | 0.325 | 0.246 | 0.737 | 0.955 | 0.824 | 0.91 | 0.788 | 0.582 | 0.552 | 0.609 | 0.537 | 0.656 | 0.838 | 0.873 | 0.841 | 0.947 | 0.929
LXF-289 | 0.679 | 0.728 | 0.645 | 0.656 | 0.622 | 0.988 | 1.04 | 0.962 | 0.929 | 0.911 | 1.03 | 1.03 | 0.95 | 0.947 | 0.936 | 1.04 | 1.01 | 1.02 | 1.04 | 0.968
NCI-H23 | 0.182 | 0.204 | 0.207 | 0.228 | 0.207 | 0.867 | 1.04 | 1.08 | 0.969 | 0.837 | 0.598 | 0.695 | 0.549 | 0.678 | 0.723 | 0.914 | 1.08 | 1.08 | 1.06 | 0.861
NCI-H322M | 0.798 | 1 | 0.966 | 1.03 | 0.896 | 1.3 | 1.34 | – | 1.51 | 1.26 | 1.02 | 1.08 | – | 1.1 | 1.16 | 1.05 | 1.09 | 0.986 | 1.21 | 1.31
NCI-H441 | 0.435 | 0.322 | 0.369 | 0.331 | 0.287 | 0.476 | 0.687 | 0.479 | 0.706 | 0.374 | 0.457 | 0.707 | 0.513 | 0.583 | 0.536 | 0.974 | 1.14 | 0.999 | 1.17 | 0.761
NCI-H460 | 0.0312 | 0.0306 | 0.0284 | 0.0265 | 0.0325 | 1.18 | 1.46 | 1.13 | 1.19 | 1.11 | 0.79 | 1.17 | 0.785 | 0.628 | 0.788 | 1.1 | 1.09 | 0.892 | 1.02 | 0.972
NCI-H520 | 0.209 | 0.242 | 0.205 | 0.2 | 0.183 | 1.05 | 1.12 | 1.2 | 1.19 | 1.17 | 1.03 | 0.941 | 1 | 1.03 | 0.842 | 0.851 | 0.744 | 0.723 | 0.839 | 0.722
NCI-H596 | 0.943 | 1.02 | 0.951 | 1.06 | 0.968 | 0.9 | 0.912 | 0.965 | 0.86 | 0.675 | 1 | 1.12 | 1.02 | 1.05 | 0.896 | 0.848 | 0.859 | 0.863 | 0.806 | 0.861
NCI-H647 | 0.127 | 0.163 | 0.122 | 0.103 | 0.119 | 1.16 | 1.21 | 1.16 | 1.04 | 1.07 | 1.1 | 1.4 | 1.13 | 0.95 | 1.1 | 1.18 | 1.04 | 1.14 | 1.1 | 1.22
NCI-H727 | 0.407 | 0.232 | 0.289 | 0.25 | 0.367 | 0.429 | 0.438 | 0.435 | 0.378 | 0.322 | 0.317 | 0.305 | 0.352 | 0.273 | 0.21 | 0.836 | 0.873 | 0.932 | 1 | 0.891
NCI-H838 | 0.409 | 0.255 | 0.242 | 0.31 | 0.263 | 1.17 | 1.35 | 1.27 | 1.02 | 0.851 | 0.981 | 1.07 | 1.02 | 0.83 | 0.745 | 1.01 | 1.06 | 1.07 | 0.882 | 0.718
NCI-H1355 | 0.713 | 0.723 | 0.645 | 0.624 | 0.65 | 0.942 | 1.02 | 0.968 | 0.846 | 0.776 | 0.776 | 0.943 | 0.846 | 0.78 | 0.679 | 0.937 | 1.01 | 1 | 0.884 | 0.907
NCI-H1395 | 0.766 | 0.703 | 0.682 | 0.558 | 0.658 | 1.19 | 1.25 | 1.04 | 1.06 | 1.31 | 0.939 | 1.12 | 0.981 | 1.1 | 1.2 | 0.985 | 1.12 | 0.952 | 0.849 | 0.954
NCI-H1437 | 1.14 | 1.16 | 1.12 | 0.993 | 0.687 | 1.1 | 1.09 | 1.16 | 0.986 | 0.968 | 0.988 | 1.08 | 1.08 | 0.978 | 0.951 | 1.31 | 1.2 | 1.21 | 1.11 | 0.988
